This note sets out measurements from ChEMBL document CHEMBL1201862, “PubChem BioAssay data set” (2004).

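Where inhibition never reached the appropriate level, the endpoint shown equals the highest concentration tested. Otherwise, values were interpolated linearly from a five-concentration, 48-hour dose response in 96-well plates. GI50: concentration for 50% inhibition of growth.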 The source made the active and inactive calls. Rule as the data show it: active = GI50 up to about 1.1 µM and inactive = higher.

What all share (experiment): NCI tumour cell line growth inhibition, 48 h
Experiment [1] deals with A498.
Experiment [2] deals with COLO 205.
For experiment [3], the system named is HCT-15.
In experiment [4] the test system is HL-60.
Experiment [5] concerns HOP-92.
Experiment [6] concerns HT-29.
The subject of experiment [7] is NCI-H226.
Experiment [8] relates to NCI-H460.
Experiment [9] concerns NCI/ADR-RES.
In experiment [10] the test system is OVCAR-3.
Experiment [11] has as its system OVCAR-4.
Experiment [12] concerns SF-268.
Experiment [13] has as its system SK-MEL-5.
Experiment [14] concerns SR.
Experiment [15] concerns SW-620.
Experiment [16] concerns T47D.
Experiment [17] concerns TK-10.
For experiment [18], the system named is U-251.
Experiment [19] has as its system SK-OV-3.

As to `CC(C)(C)C1=NN=C2c3ccccc3C(=O)C21` (configuration not stated), the GI50 was 21.3 µM (inactive) in experiment [1]; 37.8 µM (inactive) in [2]; 29.4 µM in experiment [3]; 34.3 µM (inactive) in experiment [4]; 15.5 µM (inactive) in [5]; 28.2 µM (inactive) in [6]. The GI50 in experiment [7] is 41.7 µM (inactive); in experiment [8], 43.9 µM (inactive); in [9], 83.9 µM (inactive); in experiment [10] it was 37.6 µM (inactive); in experiment [11] it was 38.8 µM (inactive); in experiment [12], 58.9 µM (inactive). The GI50 in experiment [13] is 23 µM (inactive); in experiment [14], 24.8 µM (inactive); in experiment [15], 65.6 µM (inactive); in experiment [16], > 100 µM (inactive); in [17] it was 53 µM (inactive); in [18], 46.9 µM (inactive).
As for `O=C(Nc1ccccc1)c1cc2c(cc1Cl)Sc1nccn1S2(=O)=O`, the GI50 in experiment [1] is 18.5 µM (inactive); in experiment [2] it was 15.3 µM (inactive); in experiment [3], 19.1 µM; in [4] it was 15.8 µM (inactive); in [5], 2.58 µM (inactive); in experiment [6], 21.9 µM (inactive). Further, the GI50 in [8] was 16.6 µM (inactive); in experiment [9], 41.8 µM (inactive); in experiment [10], 21.4 µM (inactive); in experiment [11], 31.8 µM (inactive); in experiment [12], 25.2 µM (inactive); in [13], 12.9 µM (inactive). The GI50 was 76.4 µM (inactive) in experiment [19]; 14.8 µM (inactive) in [14]; 21.1 µM (inactive) in experiment [15]; 19.1 µM (inactive) in experiment [16]; 34.5 µM (inactive) in [17]; 25.5 µM (inactive) in experiment [18].
`CO/C(N)=C(C#N)/N=C/c1ccc2ccccc2c1`: the GI50 is 33 µM (inactive) in experiment [1]; 17.9 µM (inactive) in experiment [2]; 3.61 µM (inactive) in experiment [4]; 34.5 µM (inactive) in [5]; 18.5 µM (inactive) in [6]; > 100 µM (inactive) in [7]. The GI50 is 13 µM (inactive) in experiment [9]; 24.2 µM (inactive) in experiment [10]; > 100 µM (inactive) in [12]; 13 µM (inactive) in experiment [13]; 82.6 µM (inactive) in [19]; 27.6 µM (inactive) in experiment [14]. Moreover, the GI50 in [15] was > 100 µM (inactive); in experiment [16] it was 8.73 µM (inactive); in experiment [17], > 100 µM (inactive); in [18], 30.8 µM (inactive).
Take `O=c1[nH]c(=O)c2c3n(cc2[nH]1)CCCCC3`: the GI50 is > 100 µM (inactive) in [1]; > 100 µM (inactive) in [2]; above 100 µM in [3]; > 100 µM (inactive) in [4]; > 100 µM (inactive) in experiment [5]; > 100 µM (inactive) in [6]. Also, the GI50 in experiment [7], in [8], in experiment [9], in experiment [11], in experiment [12] and in [13] was > 100 µM (inactive) throughout. Moreover, the GI50 in experiment [19] is > 100 µM (inactive); in experiment [14], > 100 µM (inactive); in [16] it was > 100 µM (inactive); in [17], 17.5 µM (inactive); in experiment [18] it was > 100 µM (inactive).
In the case of `Cn1c(=O)c2c(n(C)c1=O)n1c(=O)c3ccccc3nc1n2C`, the GI50 in experiment [1] was > 100 µM (inactive); in [2] it was > 100 µM (inactive); in [3] it was above 100 µM; in [5] it was > 100 µM (inactive); in experiment [6], > 100 µM (inactive); in experiment [7], 30.7 µM (inactive). Further, the GI50 is > 100 µM (inactive) in experiment [9]; > 100 µM (inactive) in experiment [10]; > 100 µM (inactive) in experiment [11]; 72.3 µM (inactive) in [12]; > 100 µM (inactive) in experiment [13]; > 100 µM (inactive) in [19]. The GI50 in [14] is 0.0237 µM (active); in experiment [15] it was > 100 µM (inactive); in experiment [16] it was > 100 µM (inactive); in experiment [17], > 100 µM (inactive); in [18], 83.6 µM (inactive).
For `CCOC(=O)c1nc2cc(C(F)(F)F)ccc2nc1Nc1cc(OC)c(OC)c(OC)c1`, the GI50 in experiment [1] is > 100 µM (inactive); in [2], > 100 µM (inactive); in [3] it was above 100 µM; in experiment [4], > 100 µM (inactive); in [5], > 100 µM (inactive); in experiment [6] it was > 100 µM (inactive). Further, the GI50 in experiment [7], in experiment [8], in experiment [9], in experiment [10], in experiment [12] and in experiment [13] was > 100 µM (inactive) throughout. For the same compound, the GI50 in [19], in experiment [14], in [15], in experiment [16], in experiment [17] and in experiment [18] was > 100 µM (inactive) in each case.
With `O=C1CC(c2ccccc2)n2cccc21` (configuration not stated), the GI50 in experiment [1] is > 100 µM (inactive); in experiment [2], > 100 µM (inactive); in [3], above 100 µM; in experiment [4], 65.6 µM (inactive); in experiment [5], > 100 µM (inactive); in [6] it was > 100 µM (inactive). Also, the GI50 in [7], in experiment [9], in experiment [10], in experiment [11], in experiment [12] and in experiment [13] was > 100 µM (inactive) each time. For the same compound, the GI50 in experiment [19], in experiment [14], in experiment [15], in experiment [16], in experiment [17] and in experiment [18] was > 100 µM (inactive) in each case.
In the case of `N#C/C(C(=O)Nc1ccc(Cl)cc1)=C(/N)N1CCCCC1`, the GI50 in experiment [1] is > 100 µM (inactive); in experiment [2], > 100 µM (inactive); in experiment [3], above 100 µM; in experiment [4], 10 µM (inactive); in experiment [5], > 100 µM (inactive); in experiment [7], 92.3 µM (inactive). The GI50 in [8] was > 100 µM (inactive); in experiment [9] it was 79.3 µM (inactive); in experiment [10] it was > 100 µM (inactive); in experiment [13] it was > 100 µM (inactive); in experiment [19] it was 72.6 µM (inactive); in experiment [14] it was > 100 µM (inactive). Further, the GI50 in experiment [15] is > 100 µM (inactive); in experiment [16] it was > 100 µM (inactive); in experiment [18], 56.5 µM (inactive).
Take `Brc1c(C#CCC2CCCCC2)ccc(C#CCC2CCCCC2)c1Br`: the GI50 was > 100 µM (inactive) in experiment [1]; > 100 µM (inactive) in experiment [2]; above 100 µM in [3]; > 100 µM (inactive) in experiment [4]; > 100 µM (inactive) in experiment [5]; > 100 µM (inactive) in experiment [7]. For the same compound, the GI50 in experiment [8], in experiment [9], in experiment [10], in [11], in experiment [12] and in [13] was > 100 µM (inactive) in each case. Also, the GI50 in [14], in experiment [15], in experiment [16], in experiment [17] and in experiment [18] was > 100 µM (inactive) in each case.
With `COC(=O)c1c(C(=O)OC)c(C(c2ccccc2)c2ccccc2)n(-c2ccccc2)c1Cl`, the GI50 in experiment [1] was > 10 µM (inactive); in experiment [2], 6.03 µM (inactive); in experiment [3], 5.5 µM; in [4], 4.06 µM (inactive); in experiment [5], 9.14 µM (inactive); in experiment [6], 4.61 µM (inactive). Besides, the GI50 is > 10 µM (inactive) in experiment [7]; > 10 µM (inactive) in experiment [8]; 4.24 µM (inactive) in experiment [9]; 5.66 µM (inactive) in [10]; 6.49 µM (inactive) in [11]; > 10 µM (inactive) in experiment [12]. The GI50 in [13] is > 10 µM (inactive); in experiment [14], 3.17 µM (inactive); in experiment [15], 7.43 µM (inactive); in [16], 4.74 µM (inactive); in [17], > 10 µM (inactive); in experiment [18], 6.73 µM (inactive).
Turning to `COCN1C(=O)[C@@H]2CCCN2C(=O)c2ccc(Cl)cc21`, the GI50 in [1] is > 100 µM (inactive); in experiment [2], > 100 µM (inactive); in experiment [3] it was above 100 µM; in [4] it was > 100 µM (inactive); in [5] it was > 100 µM (inactive); in experiment [6] it was > 100 µM (inactive). The GI50 in experiment [7], in experiment [8], in experiment [9], in experiment [11], in [12] and in experiment [19] was > 100 µM (inactive) throughout. The GI50 in experiment [14], in experiment [15], in experiment [16], in experiment [17] and in experiment [18] was > 100 µM (inactive) throughout.
`Cc1ccc(S(=O)(=O)n2cc(C#N)c(C#N)c2)cc1`: the GI50 in [1] was 24.7 µM (inactive); in experiment [2] it was 28.6 µM (inactive); in experiment [3], 17.9 µM; in experiment [4] it was 26.5 µM (inactive); in [5], 31 µM (inactive); in experiment [6] it was 23.9 µM (inactive). Moreover, the GI50 in experiment [8] is 36.5 µM (inactive); in experiment [9] it was 31.8 µM (inactive); in experiment [10] it was 22.5 µM (inactive); in experiment [11], 74 µM (inactive); in experiment [12] it was 26.6 µM (inactive); in experiment [13], 21.3 µM (inactive). The GI50 is 19.1 µM (inactive) in experiment [19]; 24.4 µM (inactive) in experiment [14]; 34.6 µM (inactive) in [15]; 26.4 µM (inactive) in experiment [16]; 38.3 µM (inactive) in [17]; 13.3 µM (inactive) in experiment [18].
